Series [1] can be described thus: LogP by HPLC on reversed phase columns (EEC directive 79/831 Annex V.A8). Type of series: physicochemical. As to conditions: reversed phase HPLC columns. In short, it runs like this:
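Reversed-phase HPLC, calibrated with straight-chain alkan-2-ones (C3–C16) of known LogP; values by linear interpolation of retention times between successive alkanones. Multiple values from one method are joined by "+"; lambda-max taken from 200–400 nm UV spectra at chromatographic peaks.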

Series [2] deals with salicylate responsive promoter sequence of the PR1 (pathogenesis-related protein I) gene (AT2G14610). The series can be described thus: Induction of defense gene expression in Arabidopsis thaliana (PR1 promoter-GFP reporter plants). The following applies: 72 h, 3rd day after spraying, mock treated leaves set as 1.00, read-out: relative fluorescence value. Type of series: in vivo. In short, it runs like this: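 Transgenic A. thaliana carrying GFP under the salicylate-responsive PR1 promoter, grown five days, then sprayed with compounds. Whole-plant fluorescence imaged and quantified on day 3 post-spray, expressed relative to mock-treated leaf background set at 1.00.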

The subject of series [3] is Colletotrichum lindemuthianum. The series can be described thus: In vivo preventive test on Colletotrichum lindemuthianum (Anthracnose on bean). The following applies: Colletotrichum lindemuthianum, 144 h, sprayed 72 hours before inoculation, evaluated 6 days after inoculation, read-out: efficacy; for pest or weed control at 500 ppm: 500 ppm of active ingredient; for pest or weed control at 125 ppm: 125 ppm of active ingredient; for pest or weed control at 31 ppm: 31 ppm of active ingredient. As for the experimental part: The tested active ingredients were prepared by homogenization in a mixture of acetone/Dimethyl sulfoxide/Tween®, and then diluted with water to obtain the desired active material concentration.
The young plants of bean were treated by spraying the active ingredient prepared as described above. Control plants were treated only with an aqueous solution of acetone/Dimethyl sulfoxide/Tween®.
After 72 hours, the plants were contaminated by spraying the leaves with an aqueous suspension of Colletotrichum lindemuthianum spores. The contaminated bean plants were incubated for 24 hours at 20° C. and at 100% relative humidity and then for 5 days at 20° C. and at 90% relative humidity.
The test was evaluated 6 days after the inoculation. 0% means an efficacy which corresponds to that of the control plants while an efficacy of 100% means that no disease was observed.

The subject of series [4] is Peronospora parasitica. The experiment in a line: In vivo preventive test on Peronospora parasitica (Crucifer downy mildew) on cabbage. As to conditions: Hyaloperonospora parasitica, 120 h, sprayed 72 hours before inoculation, evaluated 5 days after inoculation, read-out: efficacy; for pest or weed control at 125 ppm: 125 ppm of active ingredient; for pest or weed control at 500 ppm: 500 ppm of active ingredient; for pest or weed control at 31 ppm: 31 ppm of active ingredient. Summed up: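 Young cabbage plants were sprayed with compound in aqueous acetone/DMSO/Tween, then inoculated 72 h later with P. parasitica spores and held 5 days at 20 °C, 100% RH. Efficacy scored 5 days post-inoculation: 0% equals solvent-treated controls, 100% means no disease.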

Series [5] deals with Uromyces appendiculatus. The series can be described thus: In vivo preventive test on Uromyces appendiculatus (bean rust). The following applies: 240 h, sprayed 72 hours before inoculation, evaluated 10 days after inoculation, read-out: efficacy; for pest or weed control at 125 ppm: 125 ppm of active ingredient; for pest or weed control at 500 ppm: 500 ppm of active ingredient; for pest or weed control at 31 ppm: 31 ppm of active ingredient. Summed up: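 Young bean plants sprayed with compound in acetone/DMSO/Tween diluted in water, then inoculated 72 h later with spore suspension. Incubated 24 h at 20° C., 100% RH, then 9 days at 20° C., 70-80% RH. Efficacy scored 10 days post-inoculation, 0% = untreated-control level, 100% = no disease.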

Series [6] deals with Alternaria alternata. The series can be described thus: Alternaria alternata in vitro cell test. Type of series: cell-based. The following applies: 120 h, 5 days incubation, read-out: efficacy (inhibition of fungal growth; no direct activity); for inhibition at 5 ppm: 5 ppm of active ingredient; for inhibition at 20 ppm: 20 ppm of active ingredient. In short, it runs like this:
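A. alternata spores in glucose/peptone/yeast-extract liquid medium were exposed to DMSO-solubilized compound (final DMSO ≤1%). After 5 days incubation, mycelium growth read spectrometrically; inhibition derived from absorbance relative to fungicide-free control wells.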

Series [7] relates to Colletotrichum lindemuthianum. The series can be described thus: Colletotrichum lindemuthianum in vitro cell test. In kind it is cell-based. The following applies: 144 h, 6 days incubation, read-out: efficacy (inhibition of fungal growth; no direct activity); for inhibition at 5 ppm: 5 ppm of active ingredient; for inhibition at 20 ppm: 20 ppm of active ingredient. In short, it runs like this:
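C. lindemuthianum spore suspension grown in liquid glucose/peptone/yeast-extract medium with compound (final DMSO ≤1%). After 6 days, mycelial growth measured by absorbance; inhibition calculated versus fungicide-free control wells.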

Series [8] concerns Xanthomonas campestris pv. campestris. The series can be described thus: Xanthomonas campestris pv. campestris in vitro cell test. In kind it is cell-based. The following applies: 24 h of incubation, read-out: efficacy (inhibition of bacteria growth; no direct activity); for inhibition at 5 ppm: 5 ppm of active ingredient; for inhibition at 20 ppm: 20 ppm of active ingredient. Summed up: (§1)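 Bacteria from liquid pre-culture diluted to set OD in LB broth and exposed to compounds dissolved in DMSO (final ≤1%). After 24 h, growth read by absorbance; inhibition derived relative to compound-free control wells.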

In series [9] the test system is Pseudomonas syringae pv. tomato. The series can be described thus: Pseudomonas syringae pv. tomato in vitro cell test. In kind it is cell-based. The following applies: 20 ppm of active ingredient, 24 h of incubation, read-out: efficacy (inhibition of bacteria growth; no direct activity). In short, it runs like this:
as §1

The test system of series [10] is Xanthomonas campestris pv. campestris. The experiment in a line: In vivo preventive test on Xanthomonas campestris pv. campestris (black rot on cabbage). The following applies: Xanthomonas campestris, sprayed 72 hours before inoculation, evaluated 8 or 10 days after inoculation, read-out: efficacy; for pest or weed control at 125 ppm: 125 ppm of active ingredient. Summed up:
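Young cabbage plants sprayed preventively with compound formulated in acetone/DMSO/Tween and diluted in water, then inoculated 72 h later with a bacterial spray. Kept at 27° C, 95% relative humidity; disease scored after 8 or 10 days as % efficacy versus solvent-treated controls (0% = control, 100% = no disease).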

[11] abbreviates: preparation examples, method not indicated, read-out: Log P.

Structures are written as SMILES. Like-named read-outs stand apart in the source and are kept apart here.

In general, inhibition refers to the relative decrease from the control value, in per cent.

`C=CC1CC1(NC(=O)c1sc(Br)c(Br)c1C)C(=O)OC` (centres unmarked) [I.003] came in with a chromatographic logP in series [1] (method [a]) of 3.48. In addition, the fold induction at 75 ppm in series [2] was greater than 2. For the same compound, the pest or weed control at 500 ppm in series [3] lay in the range of 80 to 89%; in series [4], 90 to 100%; in series [5] it was 90 to 100%. For the same compound, the pest or weed control at 125 ppm in series [4] was in the range of 80 to 89%; in series [5], 90 to 100%. Besides, the inhibition at 5 ppm in series [6], in [7] and in series [8] was no more than 30% each time. Besides, the inhibition at 20 ppm in series [6], in [8] and in series [9] was no more than 30% each time.

In series [1] (method [a]), `CCOC(=O)C(Cc1c[nH]c2ccccc12)NC(=O)c1sc(Cl)c(Cl)c1C` (centres unmarked) [I.040] displayed a chromatographic logP of 4.08. Also, in [2], the fold induction at 75 ppm is greater than 2 and the fold induction at 300 ppm is greater than 2. For the same compound, in series [3], the pest or weed control at 125 ppm was 90 to 100% and the pest or weed control at 500 ppm lay in the range of 90 to 100%. Also, the pest or weed control at 500 ppm in series [4] was in the range of 90 to 100%. Also, in [8], the inhibition at 5 ppm was no more than 30% and the inhibition at 20 ppm was no more than 30%. For the same compound, the inhibition at 20 ppm in series [9] is no more than 30%.

In turn, `CCOC(=O)C(CC(N)=O)NC(=O)c1sc(Cl)c(Cl)c1C` (centres unmarked) [I.045] gave a chromatographic logP in series [1] (method [a]) of 2.28. Also, the fold induction at 300 ppm in [2] is greater than 2. Further, the pest or weed control at 500 ppm is 80 to 89% in series [3], 90 to 100% in series [4] and 90 to 100% in [5]. In addition, the pest or weed control at 31 ppm in [4] fell in the range of 90 to 100%. Further, the pest or weed control at 125 ppm in series [4] lay in the range of 90 to 100%. Moreover, the inhibition at 5 ppm in series [6], in series [7] and in series [8] was no more than 30% throughout. The inhibition at 20 ppm in series [6], in series [7], in series [8] and in series [9] was no more than 30% throughout.

In the case of `Cc1c(C(=S)N[C@H](C(=O)O)C(C)C)sc(Br)c1Br` [I.031, N-[(4,5-dibromo-3-methyl-2-thienyl)carbonothioyl]valine], the chromatographic logP in [1] (setting [11]) turned out to be 3.72. The fold induction at 75 ppm in series [2] is greater than 2. Further, in [2], the fold induction at 300 ppm is greater than 2. Further, the values for the pest or weed control at 500 ppm in series [3], in [4] and in series [5] were 90 to 100%, 90 to 100% and 70 to 79%, respectively. For the same compound, in [4], the pest or weed control at 125 ppm lay in the range of 90 to 100%. For the same compound, the inhibition at 5 ppm in series [6], in series [7] and in series [8] was no more than 30% each time. For the same compound, the inhibition at 20 ppm in series [6], in series [7], in [8] and in series [9] was no more than 30% throughout.

In the case of `CCOC(=O)[C@@H](NC(=S)c1sc(Br)c(Br)c1C)C(C)C` [I.023, ethyl N-[(4,5-dibromo-3-methyl-2-thienyl)carbonothioyl]valinate], the chromatographic logP in series [1] (setting [11]) worked out at 5.22. The fold induction at 300 ppm in [2] was greater than 2. Besides, the pest or weed control at 31 ppm in series [3] was 90 to 100%; in series [4], 80 to 89%. The results for the pest or weed control at 125 ppm in series [3], in series [4] and in series [10] were 90 to 100%, 90 to 100% and 80 to 89%, respectively. Besides, the pest or weed control at 500 ppm was in the range of 90 to 100% in [3], 90 to 100% in series [4] and 70 to 79% in series [10] (500 ppm of active ingredient). Besides, the inhibition at 5 ppm in [6], in series [7] and in series [8] was no more than 30% throughout. Besides, the inhibition at 20 ppm in series [6], in series [7], in series [8] and in [9] was no more than 30% each time.

In series [1] (method [a]), `CCOC(=O)C1(NC(=O)c2sc(Br)c(Br)c2C)COC1` [I.014] registered a chromatographic logP of 2.9. Also, the fold induction at 75 ppm in [2] was greater than 2. Further, the fold induction at 300 ppm in [2] is greater than 2. Further, the pest or weed control at 31 ppm was in the range of 70 to 79% in [3], 90 to 100% in series [4] and 90 to 100% in series [5]. Also, the pest or weed control at 125 ppm was 80 to 89% in series [3], 90 to 100% in series [4] and 90 to 100% in series [5]. Moreover, the pest or weed control at 500 ppm in series [3], in series [4] and in series [5] was 90 to 100% in each case. For the same compound, the inhibition at 5 ppm in [6], in series [7] and in series [8] was no more than 30% throughout. The inhibition at 20 ppm in series [6], in [7], in series [8] and in series [9] was no more than 30% throughout.

Regarding `Cc1c(C(=O)NC(C)(C)C(=O)O)sc(Cl)c1Cl` [I.174], in series [1] (method [a]), the chromatographic logP came out at 2.43. Besides, the fold induction at 75 ppm in [2] is greater than 2. Further, the fold induction at 300 ppm in [2] is greater than 2. For the same compound, the pest or weed control at 125 ppm in series [4] lay in the range of 90 to 100%; in series [10], 70 to 79%; in [5] it was 90 to 100%. Also, the pest or weed control at 31 ppm in series [5] is 90 to 100%. For the same compound, the inhibition at 5 ppm in series [6], in series [7] and in series [8] was no more than 30% in each case. Moreover, the inhibition at 20 ppm in [6], in series [7], in series [8] and in series [9] was no more than 30% in each case.

`COC(=O)C(CC(F)F)NC(=O)c1sc(Cl)c(Cl)c1C` (centres unmarked) [I.043] yielded a chromatographic logP in [1] (method [a]) of 3.25. For the same compound, the fold induction at 300 ppm in series [2] is greater than 2. Besides, the pest or weed control at 31 ppm in series [3] and in series [4] was 90 to 100% each time. The results for the pest or weed control at 125 ppm in [3], in [4] and in series [5] were 90 to 100%, 90 to 100% and 80 to 89%, respectively. Also, the pest or weed control at 500 ppm in series [3], in series [4] and in series [5] was 90 to 100% throughout. Also, the inhibition at 5 ppm in series [6], in [7] and in series [8] was no more than 30% each time. The inhibition at 20 ppm in series [6], in [8] and in [9] was no more than 30% each time.
